Test results: ChEMBL document CHEMBL1697821, “Development of a phospholipidosis database and predictive quantitative structure-activity relationship (QSAR) models” (Toxicol Mech Methods, 2008)
*1 amine or outer side, *2 acyl side, *3 side chain or, on linkers, in order; H or OH if unused. Where a SMILES comes first, the peptide text is derived from it. Bridges are numbered along the chain shown (N, C = ends). [ ]: non-standard residue; d: D form. The star is where a group is joined. X1 = NC1=N[C@@H]([C@H](N[*:1])C(=O)[*:2])C[C@H](O)N1; ΔAla(Z-3-ureido) = NC(=O)N/C=C(\N)C(=O)O; β3hOrn = NCCC[C@H](N)CC(=O)*; Dap = NC[C@H](N)C(=O)O

system: Phospholipidosis; assay: Literature-mined public compounds from Kruhlak et al phospholipidosis modelling dataset

Compound	Phospholipidosis
NS(=O)(=O)c1cc2c(cc1Cl)NC(C(Cl)Cl)NS2(=O)=O (stereo unspecified) [TRICHLORMETHIAZIDE]	Negative: based on the absence of positive reported data from WMDD
O=C(CCCN1CCC(O)(c2cccc(C(F)(F)F)c2)CC1)c1ccc(F)cc1 [TRIFLUPERIDOL]	Negative: based on the absence of positive reported data from WMDD
CCC(COC(=O)c1cc(OC)c(OC)c(OC)c1)(c1ccccc1)N(C)C (stereo unspecified) [TRIMEBUTINE]	Negative: based on the absence of positive reported data from WMDD
CN1C(=O)OC(C)(C)C1=O [TRIMETHADIONE]	Negative: based on the absence of positive reported data from WMDD
COc1cc(Cc2cnc(N)nc2N)cc(OC)c1OC [TRIMETHOPRIM]	Negative: based on the absence of positive reported data from WMDD
COc1cc(C(=O)N2CCOCC2)cc(OC)c1OC [TRIMETOZINE]	Negative: based on the absence of positive reported data from WMDD
CC(CN(C)C)CN1c2ccccc2CCc2ccccc21 (stereo unspecified) [TRIMIPRAMINE]	Positive: weak inducer based on presence of foamy macrophages and cytoplasmic vacuolations
CCN(CC)CCOc1ccc(C(O)(Cc2ccc(Cl)cc2)c2ccc(C)cc2)cc1 (stereo unspecified) [TRIPARANOL]	Positive: strong inducer confirmed by electron microscopy
CN(C)CCN(Cc1ccccc1)c1ccccn1 [TRIPELENNAMINE]	Positive: weak inducer based on presence of foamy macrophages and cytoplasmic vacuolations
Cc1ccc(/C(=C\CN2CCCC2)c2ccccn2)cc1 [TRIPROLIDINE]	Negative: based on the absence of positive reported data from WMDD
Cc1c(C)c2c(c(C)c1O)CCC(C)(COc1ccc(CC3SC(=O)NC3=O)cc1)O2 (stereo unspecified) [TROGLITAZONE]	Negative: based on the absence of positive reported data from WMDD
CCCC(CCC)C(=O)O [VALPROIC ACID]	Negative: confirmed by electron microscopy
CCCC(CCC)C(N)=O [VALPROMIDE]	Negative: based on the absence of positive reported data from WMDD
COc1ccc(C(CN(C)C)C2(O)CCCCC2)cc1 (stereo unspecified) [VENLAFAXINE]	Negative: based on the absence of positive reported data from WMDD
CC[C@]1(O)C[C@@H]2CN(CCc3c([nH]c4ccccc34)[C@@](C(=O)OC)(c3cc4c(cc3OC)N(C)[C@H]3[C@@](O)(C(=O)OC)[C@H](OC(C)=O)[C@]5(CC)C=CCN6CC[C@]43[C@@H]65)C2)C1 [VINBLASTINE]	Negative: confirmed by electron microscopy
CC[C@]1(O)C[C@@H]2CN(CCc3c([nH]c4ccccc34)[C@@](C(=O)OC)(c3cc4c(cc3OC)N(C)[C@H]3[C@@](O)(C(N)=O)[C@H](O)[C@]5(CC)C=CCN6CC[C@]43[C@@H]65)C2)C1 [VINDESINE]	Negative: based on the absence of positive reported data from WMDD
NCCC[C@H](N)CC(=O)N[C@H]1CNC(=O)[C@H]([C@H]2C[C@H](O)NC(N)=N2)NC(=O)/C(=C/NC(N)=O)NC(=O)[C@H](CO)NC(=O)[C@H](CO)NC1=O [VIOMYCIN] (β3hOrn-[Dap]SS[ΔAla(Z-3-ureido)][X1]; lactam 1-C)	Negative: based on the absence of positive reported data from WMDD
CC(=O)CC(c1ccccc1)c1c(O)c2ccccc2oc1=O (stereo unspecified) [WARFARIN]	Negative: based on the absence of positive reported data from WMDD
O=C[C@H](O)[C@@H](O)[C@H](O)CO [XYLOSE]	Negative: based on the absence of positive reported data from WMDD
C[C@H]1CCC[C@H](O)CCCCCc2cc(O)cc(O)c2C(=O)O1 [ZERANOL]	Negative: based on the absence of positive reported data from WMDD
Cc1cn([C@H]2C[C@H](N=[N+]=[N-])[C@@H](CO)O2)c(=O)[nH]c1=O [ZIDOVUDINE]	Negative: confirmed by electron microscopy
CN(C)C/C=C(/c1ccc(Br)cc1)c1cccnc1 [ZIMELDINE]	Positive: strong inducer confirmed by electron microscopy
O=C1Cc2cc(CCN3CCN(c4nsc5ccccc45)CC3)c(Cl)cc2N1 [ZIPRASIDONE]	Negative: based on the absence of positive reported data from WMDD
COc1cccc2c1C(=O)c1c(O)c3c(c(O)c1C2=O)C[C@@](O)(/C(C)=N/NC(=O)c1ccccc1)C[C@@H]3O[C@H]1C[C@H](N)[C@H](O)[C@H](C)O1 [ZORUBICIN]	Negative: based on the absence of positive reported data from WMDD
IVERMECTIN	Negative: based on the absence of positive reported data from WMDD
POLYSORBATE 80	Negative: based on the absence of positive reported data from WMDD
